Where “and” joins values, the source holds several entries; their conditions need not be identical. Equal values may be shown once.
Experiments:
[1] = 293 K; 101.33 kPa; Crystal; X-ray diffraction
[2] = molar heat capacity at constant pressure; details: 101.33 kPa, Crystal

[Nb+5].[Nb+5].[O-2].[O-2].[O-2].[O-2].[O-2].[O-2].[O-2].[Sr+2].[Sr+2] [niobium strontium oxide (Nb2Sr2O7)]
Details	mass density [kg/m3]
[1]	5206

molar heat capacity at constant pressure, [2]
Details	Relaxation time	Small sample (50 mg) DSC
2 K	0.006 J/K/mol	–
2.1 K	0.005 J/K/mol	–
2.2 K	0.006 J/K/mol	–
2.4 K	0.007 J/K/mol	–
2.5 K	0.008 J/K/mol	–
2.7 K	0.009 J/K/mol	–
2.9 K	0.01 J/K/mol	–
3.1 K	0.012 J/K/mol	–
3.2 K	0.015 J/K/mol	–
3.5 K	0.017 J/K/mol	–
3.7 K	0.02 J/K/mol	–
3.9 K	0.024 J/K/mol	–
4.2 K	0.03 J/K/mol	–
4.4 K	0.035 J/K/mol	–
4.7 K	0.043 J/K/mol	–
5 K	0.053 J/K/mol	–
5.4 K	0.064 J/K/mol	–
5.7 K	0.079 J/K/mol	–
6.1 K	0.097 J/K/mol	–
6.5 K	0.12 J/K/mol	–
6.9 K	0.15 J/K/mol	–
7.4 K	0.19 J/K/mol	–
7.9 K	0.23 J/K/mol	–
8.4 K	0.28 J/K/mol	–
8.9 K	0.35 J/K/mol	–
9.5 K	0.43 J/K/mol	–
10.1 K	0.53 J/K/mol	–
10.8 K	0.65 J/K/mol	–
11.5 K	0.8 J/K/mol	–
12.2 K	0.99 J/K/mol	–
13 K	1.21 J/K/mol	–
13.9 K	1.48 J/K/mol	–
14.8 K	1.82 J/K/mol	–
15.7 K	2.2 J/K/mol	–
16.7 K	2.69 J/K/mol	–
17.8 K	3.28 J/K/mol	–
19 K	3.97 J/K/mol	–
20.2 K	4.78 J/K/mol	–
21.5 K	5.72 J/K/mol	–
22.9 K	6.83 J/K/mol	–
24.3 K	8.09 J/K/mol	–
25.9 K	9.56 J/K/mol	–
27.6 K	11.22 J/K/mol	–
29.3 K	13.09 J/K/mol	–
31.2 K	15.16 J/K/mol	–
33.3 K	17.47 J/K/mol	–
35.4 K	20.05 J/K/mol	–
37.7 K	22.84 J/K/mol	–
40.2 K	25.86 J/K/mol	–
42.7 K	29.26 J/K/mol	–
45.5 K	32.91 J/K/mol	–
48.4 K	36.66 J/K/mol	–
51.6 K	40.57 J/K/mol	–
54.9 K	44.95 J/K/mol	–
58.4 K	49.55 J/K/mol	–
62.2 K	54.39 J/K/mol	–
66.2 K	59.43 J/K/mol	–
70.4 K	64.72 J/K/mol	–
75 K	70.3 J/K/mol	–
79.8 K	76.11 J/K/mol	–
84.9 K	82.05 J/K/mol	–
90.4 K	88.37 J/K/mol	–
96.2 K	95.08 J/K/mol	–
102.4 K	101.57 J/K/mol	–
115.9 K	115.3 J/K/mol	–
123.4 K	122.51 J/K/mol	–
131.3 K	129.76 J/K/mol	–
139.7 K	137.01 J/K/mol	–
148.6 K	144.41 J/K/mol	–
158.2 K	152.04 J/K/mol	–
168.3 K	158.82 J/K/mol	–
179 K	166.7 J/K/mol	–
190.5 K	173.8 J/K/mol	–
201.5 K	179.2 J/K/mol	–
203 K	180.19 J/K/mol	–
203.6 K	180.24 J/K/mol	–
205.7 K	181.22 J/K/mol	–
207.7 K	181.67 J/K/mol	–
209.7 K	183.21 J/K/mol	–
211.7 K	184.53 J/K/mol	–
213.8 K	185.64 J/K/mol	–
215.8 K	187.13 J/K/mol	–
217.8 K	188.51 J/K/mol	–
219.8 K	190.01 J/K/mol	–
221.8 K	191.02 J/K/mol	–
223.8 K	191.53 J/K/mol	–
225.9 K	192.06 J/K/mol	–
227.9 K	193.45 J/K/mol	–
229.9 K	193.04 J/K/mol	–
231.9 K	193.63 J/K/mol	–
233.9 K	194.26 J/K/mol	–
235.9 K	196.53 J/K/mol	–
238 K	196.42 J/K/mol	–
240 K	197.53 J/K/mol	–
242 K	197.69 J/K/mol	–
244 K	197.75 J/K/mol	–
246.1 K	198.29 J/K/mol	–
248.1 K	200 J/K/mol	–
250.1 K	200.61 J/K/mol	–
252.1 K	201.6 J/K/mol	–
254.1 K	202.35 J/K/mol	–
256.1 K	203.13 J/K/mol	–
258.1 K	203.04 J/K/mol	201.78 J/K/mol and 201.57 J/K/mol
260.2 K	205.33 J/K/mol	–
262.2 K	206.4 J/K/mol	–
264.2 K	207.59 J/K/mol	–
266.2 K	208.79 J/K/mol	–
268.2 K	209.43 J/K/mol	–
268.3 K	–	206.1 J/K/mol and 204.8 J/K/mol
270.2 K	210.44 J/K/mol	–
272.2 K	211.82 J/K/mol	–
274.3 K	212.04 J/K/mol	–
276.3 K	212.05 J/K/mol	–
278.3 K	212.41 J/K/mol	–
278.5 K	–	208.78 J/K/mol and 208.32 J/K/mol
280.3 K	212.81 J/K/mol	–
282.3 K	212.94 J/K/mol	–
284.3 K	213.33 J/K/mol	–
286.3 K	213.1 J/K/mol	–
288.3 K	213.9 J/K/mol	–
288.7 K	–	211.87 J/K/mol and 212.56 J/K/mol
290.4 K	214.19 J/K/mol	–
292.4 K	214.81 J/K/mol	–
294.4 K	215.93 J/K/mol	–
296.4 K	216.6 J/K/mol	–
298.4 K	219.18 J/K/mol	–
298.9 K	–	216.24 J/K/mol [middle of 10 runs]
300.4 K	218.65 J/K/mol	–
309.1 K	–	220.12 J/K/mol [middle of 11 runs]
319.4 K	–	223.23 J/K/mol [middle of 9 runs]
329.6 K	–	225.99 J/K/mol [middle of 11 runs]
339.8 K	–	228.99 J/K/mol [middle of 10 runs]
350 K	–	230.93 J/K/mol [middle of 11 runs]

— the NIST ThermoML archive (doi:10.1016/j.tca.2008.06.010)
